Assay results as given in patent US12478634B2, “Compositions and methods for treating muscular dystrophy and other disorders” (The Charlotte Mecklenburg Hospital Authority, priority 2016, dated 2025).

What was measured:
epithelial cells [1] = experiment: IIH6 membrane staining of glycosylated α-DG in treated epithelial cells; type: cell-based; conditions: 3 days culture with agent, vs control
Procedure: The white lines represent the membrane staining with the antibody. […] Cells are grown in culture medium and active reagents were added one day later and culture for further 3 days with the described concentration. The cells were then washed, fixed and stained with IIH6 antibody for the expression of glycosylated a-DG. The positive signals present as membrane staining (white lines and circles here) which are only detected in the majority of the treated samples, but hardly seen in the control.

MCF-7 cells = experiment: FACS for expression of glycosylated alpha-DG after ribitol treatment; type: cell-based; conditions: MCF-7, 10 mM ribitol for 3 days; untreated controls 45%
Procedure: FIG. 1. Fluorescence-activated cell sorting (FACS) for the enhanced expression of glycosylated alpha-DG after ribitol treatment. The breast cancer cell line MCF-7 was seeded in T25 culture flasks and cultured to 75% confluence in DMEM 10% FBS, and then treated with 10 mM ribitol in the same growth medium for 3 days. The cells were then collected by gentle scrapping and washed twice with PBS. The cells were resuspended in 100 microliter PBS and stained with monoclonal antibody IIH6 (Millipore EMD, 1:100 dilution) for 40 minutes and detected with secondary Alexa 594-labeled goat anti-mouse IgM (Invitrogen). The stained cells were washed and then FACS analyzed for the percentage of positive cells and the signal intensity (Alexa594.007). […]
Fluorescence-activated cell sorting (FACS) was used to show enhanced expression of glycosylated alpha-DG after ribitol treatment. […] The cells were resuspended in 100 microliter PBS and stained with monoclonal antibody IIH6 (Millipore EMD, 1:100 dilution) for 40 minutes and detected with secondary Alexa 594-labeled goat anti-mouse IgM (Invitrogen). The stained cells were washed and then FACS analyzed for the percentage of positive cells and the signal intensity (Alexa594.007). […]

epithelial cells [2] = experiment: IIH6 blot of glycosylated α-DG from treated epithelial cells; type: cell-based; conditions: 3 days culture with agent
Procedure: Lane 1, control untreated cells; Lane 4, cells treated with ribulose-5-phosphate; Lane 5, cells treated with glucose. […] Cells are grown in culture medium and active reagents were added one day later and culture for further 3 days with the active agent. The cells were then collected, homogenized, blotted onto membrane and detected with 1H6 antibody for the expression of glycosylated a-DG. The black large spot represents the expression of the glycosylated a-DG, with higher intensity indicating higher levels.

[3] = test system: FKRP and LARGE transcripts; experiment: Quantitative real-time PCR of FKRP and LARGE transcripts; type: in vivo, mouse; conditions: cardiac muscle, limb muscle and diaphragm
Procedure: Quantitative reverse transcriptase PCR assay. Tissues were collected from heart, diaphragm and tibialis anterior. RNA was extracted using TRIzol (Invitrogen) following the supplied protocol. Final RNA pellet was re-suspended in 20 μl RNAse-nuclease free water. Final RNA concentration was determined using Nanodrop 2000c. One […] of RNA was subsequently converted to cDNA using the High-Capacity RNA-to-cDNA™ Kit (Applied Biosystems) following the supplied protocol. cDNA was then used for quantitative real-time PCR using the mouse FKRP-FAM (Mm00557870 ml) and LARGE-FAM (Mm00521885_ml) taqman assay with primer limited GAPDH-VIC (Mm99999915_g1) as the internal control and TaqMan® Universal Master Mix II, with UNG (Life Technologies). […] Results of FKRP and LARGE transcript were calculated and expressed as 2^−ΔΔCt and compared across tissues and animals.

SMILES	glycosylated α-DG membrane staining (IIH6) (epithelial cells [1])	positive cells for glycosylated alpha-DG (IIH6 antibody) (MCF-7 cells) [%]	functionally glycosylated alpha-DG on blot (epithelial cells [2])	FKRP and LARGE transcript levels, treated vs untreated [3]
Nc1ccn([C@@H]2O[C@H](COP(=O)(O)OP(=O)(O)OC[C@@H](O)[C@@H](O)[C@@H](O)CO)[C@@H](O)[C@H]2O)c(=O)n1 [CDP-ribitol]	positive signals are identified in the majority of the cells			
OC[C@@H](O)[C@@H](O)[C@@H](O)CO [ribitol]	positive signals are identified in the majority of the cells	82	observed visually	No statistically significant difference
O=C(CO)[C@H](O)[C@H](O)COP(=O)(O)O [ribulose-5-phosphate, reference compound]			barely detectable	
O=C(CO)[C@H](O)[C@H](O)CO [ribulose]	positive signals are identified in the majority of the cells		observed visually	
